Results taken from patent publication US20240131007A1, “METHODS AND COMPOSITIONS FOR PICORNAVIRUS ANTI-VIRAL AGENTS” (University of Connecticut, priority 2022, published 2024).
Read-outs that look alike come from different tables or passages of the source.

Experiments:
EV-A71 = experiment: CPE inhibition assay (Cell Titer Glo) against EV-A71 in Vero cells; type: cell-based, Enterovirus A71; conditions: for IC50: Enterovirus A, EVA71, read-out: IC50; for IC50 / anti-viral activity of analogs of Compound T3 (luminescence above 3SD cutoff): EV-A71, Vero cells; for Selectivity Index: CC50/IC50; for anti-viral activity of analogs of Compound T3 (luminescence above 3SD cutoff): single concentration 25 μM
[1] = Cytotoxicity assay (Cell Titer Glo); conditions: African green monkey, CC50 (μM), Vero cells
EV-A71 Δ2C^116-329 = biological target: T1, EV-A71 Δ2C^116-329 (Human enterovirus 71, UniProt Q66478); experiment: biochemical; type: biochemical
T1 construct: EV-A71 Δ2C (amino acids 116-329) was designed with; made in house; host or cells: E. coli Rosetta 2(DE3) pLysS, pMALc5x vector

in vitro = conditions: African green monkey, CC50 (μM)
Vero cells = experiment: Cytotoxicity assay (Cell Titer Glo); conditions: Table 10, Scaffold 1; Vero cells

T1 sequence (Q66478 1227-1440, stated change not applied): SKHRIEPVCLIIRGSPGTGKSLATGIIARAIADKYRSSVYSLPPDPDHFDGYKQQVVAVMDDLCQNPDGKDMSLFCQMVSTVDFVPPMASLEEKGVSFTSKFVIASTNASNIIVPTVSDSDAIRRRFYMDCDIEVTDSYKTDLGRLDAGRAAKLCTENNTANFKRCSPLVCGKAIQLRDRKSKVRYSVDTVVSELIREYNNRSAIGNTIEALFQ

| Molecule | IC50 (EV-A71; Table 10, Scaffold 1) [µM] | Selectivity Index (EV-A71; Table 10, Scaffold 1) | IC50 (EV-A71 Δ2C^116-329) [µM] | CC50 at 3 days (in vitro) [µM] | other results |
| --- | --- | --- | --- | --- | --- |
| O=C(Nc1ccc2[nH]c(-c3ccco3)nc2c1)c1cccs1 [Compound 57, N-[2-(2-furyl)-1H-benzimidazol-5-yl]-2-thiophenecarboxamide] | – | – | – | – | IC50 (EV-A71; Table 8, virus-induced CPE): 2.75 µM; Selectivity Index (EV-A71; Table 8): 3.09; Selectivity Index (EV-A71; Table 12, Scaffold 3): 3.09; anti-viral activity of analogs of Compound T3 (luminescence above 3SD cutoff) (EV-A71): have activity; CC50 at 3 days ([1]; Table 8): 8.5 µM; CC50 at 3 days ([1]; Table 12, Scaffold 3): 8.5 µM |
| O=C(Nc1ccc(-c2nc3ccccc3[nH]2)cc1)c1ccc(C(=O)Nc2ccc(-c3nc4ccccc4[nH]3)cc2)cc1 [Compound 28, N,N′-bis[4-(1H-benzimidazol-2-yl)phenyl]terephthalamide] | 41.7 | >9.6 | 0.55 | > 400 | – |
| Cc1ccc2[nH]c(-c3ccc(NC(=O)Cc4cccs4)cc3)nc2c1 [Compound 35, N-[4-(5-methyl-1H-benzimidazol-2-yl)phenyl]-2-(2-thienyl)acetamide] | > 25 | – | – | – | CC50 at 3 days ([1]; Table 10, Scaffold 1): > 400 µM |
| Cc1ccc2[nH]c(-c3ccc(NC(=O)c4cccc(Br)c4)cc3)nc2c1 [Compound 44, 3-bromo-N-[4-(5-methyl-1H-benzimidazol-2-yl)phenyl]benzamide] | 10.5 | 45.23 | 19 | 475 | – |
| O=C(Nc1ccc(-c2nc3ccccc3[nH]2)cc1)c1c(F)c(F)c(F)c(F)c1F [Compound 16, N-[4-(1H-benzimidazol-2-yl)phenyl]-2,3,4,5,6-pentafluorobenzamide] | > 25 | – | – | – | CC50 at 3 days ([1]; Table 10, Scaffold 1): > 400 µM |
| O=C(Nc1ccc(-c2nc3cc4ccccc4cc3[nH]2)cc1)c1cccc(Br)c1 [Compound 48, 3-bromo-N-[4-(1H-naphtho[2,3-d]imidazol-2-yl)phenyl]benzamide] | – | – | 33.1 | 302 | IC50 (EV-A71; Table 8, virus-induced CPE): 0.71 µM; Selectivity Index (EV-A71; Table 8): 426.06; Selectivity Index (EV-A71; Table 11, Scaffold 2): 426.06 |
| O=C(Nc1ccc(-c2nc3ccccc3o2)cc1)c1ccc(NC(=O)c2cc3ccccc3o2)cc1 [Compound 46, N-[4-({[4-(1,3-benzoxazol-2-yl)phenyl]amino}carbonyl)phenyl]-1-benzofuran-2-carboxamide] | 40 | 34.49 | 17.4 | 1380 | – |
| Cc1ccc(-c2nc3cc(NC(=O)c4cccs4)ccc3[nH]2)o1 [Compound 55, N-[2-(5-methyl-2-furyl)-1H-benzimidazol-5-yl]-2-thiophenecarboxamide] | – | – | – | – | IC50 (EV-A71; Table 12, Scaffold 3): > 25 µM; CC50 at 3 days ([1]; Table 12, Scaffold 3): > 400 µM |
| O=C(Cc1cccs1)Nc1ccc(-c2nc3ccccc3[nH]2)cc1 [Compound 9, N-[4-(1H-benzimidazol-2-yl)phenyl]-2-(2-thienyl)acetamide] | 104 | 3.26 | – | – | CC50 at 3 days ([1]; Table 10, Scaffold 1): 338 µM |
| CC(=O)Nc1ccc2[nH]c(-c3ccc(Br)o3)nc2c1 [Compound 52, N-[2-(5-bromo-2-furyl)-1H-benzimidazol-5-yl]acetamide] | – | – | – | – | IC50 (EV-A71; Table 12, Scaffold 3): 7.1 µM; Selectivity Index (EV-A71; Table 12, Scaffold 3): 1.30; CC50 at 3 days ([1]; Table 12, Scaffold 3): 9.2 µM |
| Cc1ccc2[nH]c(-c3ccc(NC(=O)c4ccc(C)c(C)c4)cc3)nc2c1 [Compound 43, 3,4-dimethyl-N-[4-(5-methyl-1H-benzimidazol-2-yl)phenyl]benzamide] | – | 39.86 | 55 | 170 | IC50 (EV-A71; Table 8, virus-induced CPE): 4.27 µM; Selectivity Index (EV-A71; Table 8): 39.86 |
| COc1ccc(C(=O)Nc2ccc(-c3nc4cc(C)ccc4[nH]3)cc2)cc1OC [Compound 37, 3,4-dimethoxy-N-[4-(5-methyl-1H-benzimidazol-2-yl)phenyl]benzamide] | 69.1 | >5.79 | 20.6 | > 400 | – |
| Cc1cccc(C(=O)Nc2ccc(-c3nc4ccccc4[nH]3)cc2)c1 [Compound 12, N-[4-(1H-benzimidazol-2-yl)phenyl]-3-methylbenzamide] | 13.2 | 32.71 | 652 | 432 | – |
| O=C(C=Cc1ccco1)Nc1ccc(-c2nc3ccccc3[nH]2)cc1 [Compound 20, N-[4-(1H-benzimidazol-2-yl)phenyl]-3-(2-furyl)acrylamide] | 5.41 | >73.94 | 18.1 | – | CC50 at 3 days ([1]; Table 10, Scaffold 1): > 400 µM |
| O=C(Nc1ccc2[nH]c(-c3cccs3)nc2c1)c1cccs1 [Compound 56, N-[2-(2-thienyl)-1H-benzimidazol-5-yl]-2-thiophenecarboxamide] | – | – | – | – | IC50 (EV-A71; Table 12, Scaffold 3): 20 µM; Selectivity Index (EV-A71; Table 12, Scaffold 3): 6.17; anti-viral activity of analogs of Compound T3 (luminescence above 3SD cutoff) (EV-A71): have activity; CC50 at 3 days ([1]; Table 12, Scaffold 3): 123 µM |
| Cc1ccc2[nH]c(-c3ccc(NC(=O)c4ccc(Br)o4)cc3)nc2c1 [Compound 40, 5-bromo-N-[4-(5-methyl-1H-benzimidazol-2-yl)phenyl]-2-furamide] | 81.9 | >4.89 | 37.3 | > 400 | – |
| O=C(CSc1ccc(Cl)cc1)Nc1ccc(-c2nc3ccccc3[nH]2)cc1 [Compound 25, N-[4-(1H-benzimidazol-2-yl)phenyl]-2-[(4-chlorophenyl)thio]acetamide] | > 25 | – | – | – | CC50 at 3 days ([1]; Table 10, Scaffold 1): 582 µM |

| Molecule | IC50 (EV-A71; Table 10, Scaffold 1) [µM] | Selectivity Index (EV-A71; Table 10, Scaffold 1) | IC50 (EV-A71 Δ2C^116-329) [µM] | CC50 at 3 days (in vitro) [µM] | other results |
| --- | --- | --- | --- | --- | --- |
| CC(=O)Oc1ccc(C(=O)Nc2ccc(-c3nc4ccccc4[nH]3)cc2)cc1 [Compound 4, 4-({[4-(1H-benzimidazol-2-yl)phenyl]amino}carbonyl)phenyl acetate] | 34.2 | 3.49 | – | 119 | – |
| CC(=O)Nc1ccc(C(=O)Nc2ccc(-c3nc4ccccc4[nH]3)cc2)cc1 [Compound 3, 4-(acetylamino)-N-[4-(1H-benzimidazol-2-yl)phenyl]benzamide] | > 25 | – | – | > 400 | – |
| O=C(Nc1ccc(-c2nc3ccccc3[nH]2)cc1)c1ccc(-c2cccc([N+](=O)[O-])c2)o1 [Compound 23, N-[4-(1H-benzimidazol-2-yl)phenyl]-5-(3-nitrophenyl)-2-furamide] | > 25 | – | – | 1.14 | – |
| Cc1ccc2nc(-c3cccc(NC(=O)c4ccco4)c3)[nH]c2c1 [Compound 63, N-[3-(6-methyl-1H-benzimidazol-2-yl)phenyl]-2-furamide] | – | – | – | – | IC50 (EV-A71; Table 13, Scaffold 4): 24.8 µM; Selectivity Index (EV-A71; Table 13, Scaffold 4): 5.28; CC50 at 3 days ([1]; Table 13, Scaffold 4): 131 µM |
| N-[4-(1H-benzimidazol-2-yl)phenyl]-2-(3-4-phenylthio)acetamide [Compound 22] | – | – | – | – | CC50 (Vero cells): 761 µM |
| CC(=O)Nc1ccc(-c2nc3ccccc3[nH]2)cc1 [Compound 1, N-[4-(1H-benzimidazol-2-yl)phenyl]acetamide] | > 25 | – | – | > 400 | – |
| CC(=O)Nc1ccc(-c2nc3cc(C)ccc3[nH]2)cc1 [Compound 29, N-[4-(5-methyl-1H-benzimidazol-2-yl)phenyl]acetamide] | 69.3 | >5.77 | – | > 400 | – |
| O=C(Nc1ccc(-c2nc3ccccc3[nH]2)cc1)c1cccs1 [Compound 10, N-[4-(1H-benzimidazol-2-yl)phenyl]-2-thiophenecarboxamide] | – | 42.06 | – | 210 | IC50 (EV-A71; Table 8, virus-induced CPE): 5 µM; Selectivity Index (EV-A71; Table 8): 42.06 |
| O=C(Nc1ccc(-c2nc3ccccc3[nH]2)cc1)c1ccc(N2CCOCC2)c([N+](=O)[O-])c1 [Compound 18, N-[4-(1H-benzimidazol-2-yl)phenyl]-4-(4-morpholinyl)-3-nitrobenzamide] | > 25 | – | – | 11.1 | – |
| Cc1ccc2[nH]c(-c3ccc(NC(=O)COc4ccccc4)cc3)nc2c1 [Compound 38, N-[4-(5-methyl-1H-benzimidazol-2-yl)phenyl]-2-phenoxyacetamide] | > 25 | – | – | > 400 | – |
| O=C(CSCc1ccc([N+](=O)[O-])cc1)Nc1ccc(-c2nc3ccccc3[nH]2)cc1 [Compound 21, N-[4-(1H-benzimidazol-2-yl)phenyl]-2-[(4-nitrobenzyl)thio]acetamide] | > 25 | – | – | > 400 | – |
| Cc1ccc2[nH]c(-c3cccc(NC(=O)c4ccc(Br)o4)c3)nc2c1 [Compound 64, 5-bromo-N-[3-(5-methyl-1H-benzimidazol-2-yl)phenyl]-2-furamide] | – | – | – | 43.8 | IC50 (EV-A71; Table 13, Scaffold 4): 71.4 µM; Selectivity Index (EV-A71; Table 13, Scaffold 4): 0.61 |
| O=C(Nc1ccc(-c2nc3ccccc3[nH]2)cc1)c1cccc(F)c1 [Compound 15, N-[4-(1H-benzimidazol-2-yl)phenyl]-3-fluorobenzamide] | > 25 | – | – | 29.2 | – |
| COc1ccccc1OCC(=O)Nc1ccc(-c2nc3cc(C)ccc3[nH]2)cc1 [Compound T1, 2-(2-methoxyphenoxy)-N-[4-(5-methyl-1H-benzimidazol-2-yl)phenyl]acetamide] | – | – | – | 306 | IC50 (EV-A71; Table 6): 5 µM; Selectivity Index (EV-A71; Table 6): 61.24 |
| CCC(=O)Nc1ccc(-c2nc3ccc(Cl)cc3[nH]2)cc1 [Compound 32, N-[4-(6-chloro-1H-benzimidazol-2-yl)phenyl]propanamide] | > 25 | – | – | > 400 | – |
| O=C(Nc1ccc2[nH]c(-c3ccc(Br)o3)nc2c1)c1ccc([N+](=O)[O-])cc1 [Compound 51, N-[2-(5-bromo-2-furyl)-1H-benzimidazol-5-yl]-4-nitrobenzamide] | – | – | 54.1 | 126 | IC50 (EV-A71; Table 12, Scaffold 3): 72.4 µM; Selectivity Index (EV-A71; Table 12, Scaffold 3): 1.74 |
